Holding throughout (assay type): functional
Assay [1] has as its system KM-20L2. Kind of assay: Growth inhibition of human KM20L2 cells after 48 hrs by SRB assay. As to conditions: KM-20L2, 48 h.
For assay [2], the system named is BXPC-3. Nature of the assay: Growth inhibition of human BxPC3 cells after 48 hrs by SRB assay. To be noted: BXPC-3, 48 h.
Assay [3] deals with SF-268. Nature of the assay: Growth inhibition of human SF268 cells after 48 hrs by SRB assay. To be noted: SF-268, 48 h.
The test system of assay [4] is DU-145. Kind of assay: Growth inhibition of human DU145 cells after 48 hrs by SRB assay. To be noted: DU-145, 48 h.
Assay [5] deals with MCF7. Kind of assay: Growth inhibition of human MCF7 cells after 48 hrs by SRB assay. To be noted: MCF7, 48 h.
The subject of assay [6] is NCI-H460. Kind of assay: Growth inhibition of human NCI-H460 cells after 48 hrs by SRB assay. To be noted: NCI-H460, 48 h.

This note sets out measurements from ChEMBL document CHEMBL4130434, “Antineoplastic Agents. 604. The Path of Quinstatin Derivatives to Antibody Drug Conjugates” (2017).

*1 amine or outer side, *2 acyl side, *3 side chain or, on linkers, in order; H or OH if unused. Where a SMILES comes first, the peptide text is derived from it. [ ]: non-standard residue; d: D form. The star is where a group is joined. Dolaproine = CO[C@@H]([C@@H]1CCCN1)[C@@H](C)C(=O)O; Hexanoyl(6-maleimido) = O=C1C=CC(=O)N1CCCCCC(=O)*; Dil = CC[C@H](C)[C@H](NC)[C@@H](CC(=O)O)OC; PABC = O=C(OCc1ccc(N[*:1])cc1)[*:2]; Cit = NC(=O)NCCC[C@H](N)C(=O)O; NMeV = CN[C@H](C(=O)O)C(C)C; X1 = c1cnc2c(CCN*)cccc2c1; X2 = c1cc(CCN*)c2cccnc2c1; X3 = c1ccc2c(CCN*)ccnc2c1; X4 = c1ccc2nc(CCN*)ccc2c1

With `CC[C@H](C)[C@@H]([C@@H](CC(=O)N1CCC[C@H]1[C@H](OC)[C@@H](C)C(=O)NCCc1cccc2cccnc12)OC)N(C)C(=O)[C@@H](NC(=O)[C@@H](NC)C(C)C)C(C)C` (H-[NMeV]V[Dil][Dolaproine]-X1), the GI50 in assay [1] is 0.203 nM; in assay [2], 11.5 nM; in assay [3] it was 0.06 nM; in assay [4], 0.07 nM; in assay [5] it was 0.06 nM; in assay [6], 14.9 nM.
For `CC[C@H](C)[C@@H]([C@@H](CC(=O)N1CCC[C@H]1[C@H](OC)[C@@H](C)C(=O)NCCc1cccc2cccnc12)OC)N(C)C(=O)[C@@H](NC(=O)[C@H](C(C)C)N(C)C(=O)OCc1ccc(NC(=O)[C@H](CCCNC(N)=O)NC(=O)[C@@H](NC(=O)CCCCCN2C(=O)C=CC2=O)C(C)C)cc1)C(C)C` ({Hexanoyl(6-maleimido)}-V[Cit][PABC][NMeV]V[Dil][Dolaproine]-X1), the GI50 in assay [1] is 23.9 nM; in assay [2], 449 nM; in assay [3] it was 3.52 nM; in assay [4], 5.98 nM; in assay [5], 15 nM; in assay [6], 449 nM.
As to `CC[C@H](C)[C@@H]([C@@H](CC(=O)N1CCC[C@H]1[C@H](OC)[C@@H](C)C(=O)NCCc1cccc2ncccc12)OC)N(C)C(=O)[C@@H](NC(=O)[C@H](C(C)C)N(C)C(=O)OCc1ccc(NC(=O)[C@H](CCCNC(N)=O)NC(=O)[C@@H](NC(=O)CCCCCN2C(=O)C=CC2=O)C(C)C)cc1)C(C)C` ({Hexanoyl(6-maleimido)}-V[Cit][PABC][NMeV]V[Dil][Dolaproine]-X2), the GI50 in assay [1] was determined as 11.2 nM; in assay [2], 299 nM; in assay [3] it was 2.99 nM; in assay [4] it was 4.49 nM; in assay [5], 5.23 nM; in assay [6], 247 nM.
For the molecule `CC[C@H](C)[C@@H]([C@@H](CC(=O)N1CCC[C@H]1[C@H](OC)[C@@H](C)C(=O)NCCc1ccnc2ccccc12)OC)N(C)C(=O)[C@@H](NC(=O)[C@@H](NC)C(C)C)C(C)C` (H-[NMeV]V[Dil][Dolaproine]-X3), the GI50 stood at 0.596 nM in assay [1]; 67.7 nM in assay [2]; 0.176 nM in assay [3]; 0.135 nM in assay [4]; 0.149 nM in assay [5]; 67.7 nM in assay [6].
Consider `CC[C@H](C)[C@@H]([C@@H](CC(=O)N1CCC[C@H]1[C@H](OC)[C@@H](C)C(=O)NCCc1ccnc2ccccc12)OC)N(C)C(=O)[C@@H](NC(=O)[C@H](C(C)C)N(C)C(=O)OCc1ccc(NC(=O)[C@H](CCCNC(N)=O)NC(=O)[C@@H](NC(=O)CCCCCN2C(=O)C=CC2=O)C(C)C)cc1)C(C)C` ({Hexanoyl(6-maleimido)}-V[Cit][PABC][NMeV]V[Dil][Dolaproine]-X3), for which the GI50 in assay [1] is 38.9 nM; in assay [2], 1570 nM; in assay [3], 29.9 nM; in assay [4] it was 31.4 nM; in assay [5], 30.7 nM; in assay [6], 2620 nM.
For the molecule `CC[C@H](C)[C@@H]([C@@H](CC(=O)N1CCC[C@H]1[C@H](OC)[C@@H](C)C(=O)NCCc1cccc2ncccc12)OC)N(C)C(=O)[C@@H](NC(=O)[C@@H](NC)C(C)C)C(C)C` (H-[NMeV]V[Dil][Dolaproine]-X2), the 50% growth inhibitory concentration (GI50) amounted to 0.582 nM in assay [1]; 27.1 nM in assay [2]; 0.311 nM in assay [3]; 0.812 nM in assay [4]; 0.298 nM in assay [5]; 37.9 nM in assay [6].
`CC[C@H](C)[C@@H]([C@@H](CC(=O)N1CCC[C@H]1[C@H](OC)[C@@H](C)C(=O)NCCc1ccc2ccccc2n1)OC)N(C)C(=O)[C@@H](NC(=O)[C@@H](NC)C(C)C)C(C)C` (H-[NMeV]V[Dil][Dolaproine]-X4): the GI50 in assay [1] turned out to be 3.24 nM; in assay [2], 81.2 nM; in assay [3], 1.22 nM; in assay [4], 12.2 nM; in assay [5], 4.06 nM; in assay [6], 392 nM.
Consider `CC[C@H](C)[C@@H]([C@@H](CC(=O)N1CCC[C@H]1[C@H](OC)[C@@H](C)C(=O)N[C@@H](Cc1ccccc1)c1nccs1)OC)N(C)C(=O)[C@@H](NC(=O)[C@H](C(C)C)N(C)C)C(C)C` [DOLASTATIN-10], for which the GI50 in assay [1] was 0.01 nM; in assay [2], 0.051 nM; in assay [3], 0.006 nM; in assay [4] it was 0.007 nM; in assay [5] it was 0.005 nM; in assay [6], 0.229 nM.
